The supplement of paper PMC5579334
± gives the standard deviation of the averaged measurements.

Columns and labels:
YST-1 [1] = assay: drug sensitivity score (DSS, CellTiter-Glo viability, 72 h) (DSS (dimensionless)); higher = more sensitive; extreme values may be limits of the assay
In short: (§1)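 Viability of MPNST cell lines and primary human Schwann cells was read as CellTiter-Glo ATP luminescence after 72 h at 37 °C, 5% CO2, in 384-well plates seeded with 750–1000 cells per well. Each compound had been preprinted at five concentrations in 10-fold steps. Signals were scaled between vehicle and positive-control wells, duplicates averaged where present, and fitted with four-parameter logistic curves. Drug sensitivity score and relative IC50 (censored at the top concentration) come from those fits, and percent inhibition is taken at the top concentration.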

[2] = system: HSC1 (primary human Schwann cells); assay: as above
In short: as §1

ST8814 [3] = assay: as above
In short: as §1

S462 [4] = assay: as above
In short: as §1

[5] = system: HSC2 (primary human Schwann cells); assay: as above
In short: as §1

STS26T [6] = assay: as above
In short: as §1

HS-PSS [7] = assay: as above
In short: as §1

HS-Sch-2 [8] = assay: as above
In short: as §1

S1507-2 [9] = assay: as above
In short: as §1

YST-1 [10] = assay: % inhibition of CellTiter-Glo viability at highest tested concentration (72 h), relative to DMSO and benzethonium chloride controls; higher = more inhibition
In short: as §1

[11] = system: HSC1 (primary human Schwann cells); assay: as above
In short: as §1

ST8814 [12] = assay: as above
In short: as §1

S462 [13] = assay: as above
In short: as §1

[14] = system: HSC2 (primary human Schwann cells); assay: as above
In short: as §1

STS26T [15] = assay: as above
In short: as §1

HS-PSS [16] = assay: as above
In short: as §1

HS-Sch-2 [17] = assay: as above
In short: as §1

S1507-2 [18] = assay: as above
In short: as §1

[19] = system: HSC1 (primary human Schwann cells); assay: drug sensitivity score (DSS, CellTox-Green cytotoxicity, 72 h) (DSS (dimensionless)); higher = more cytotoxic; extreme values may be limits of the assay
In short: (§2)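 MPNST cell lines and primary human Schwann cells were grown for 72 h at 37 °C in 384-well plates containing five 10-fold compound dilutions. CellTox-Green, added before seeding at a final 1:1000 dilution, gave fluorescence from DNA released by disrupted cells, and signals were scaled to vehicle and positive-control wells. Curves were fitted with a four-parameter logistic model. Drug sensitivity score and relative IC50 come from these fits, with IC50 censored at the top concentration.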

ST8814 [20] = assay: as above
In short: as §2

[21] = system: HSC2 (primary human Schwann cells); assay: as above
In short: as §2

STS26T [22] = assay: as above
In short: as §2

HS-PSS [23] = assay: as above
In short: as §2

S1507-2 [24] = assay: as above
In short: as §2

SMILES | drug sensitivity score (YST-1 [1]) | drug sensitivity score [2] | drug sensitivity score (ST8814 [3]) | drug sensitivity score (S462 [4]) | drug sensitivity score [5] | drug sensitivity score (STS26T [6]) | drug sensitivity score (HS-PSS [7]) | drug sensitivity score (HS-Sch-2 [8]) | drug sensitivity score (S1507-2 [9]) | % inhibition (YST-1 [10]) [%] | % inhibition [11] [%] | % inhibition (ST8814 [12]) [%] | % inhibition (S462 [13]) [%] | % inhibition [14] [%] | % inhibition (STS26T [15]) [%] | % inhibition (HS-PSS [16]) [%] | % inhibition (HS-Sch-2 [17]) [%] | % inhibition (S1507-2 [18]) [%] | drug sensitivity score [19] | drug sensitivity score (ST8814 [20]) | drug sensitivity score [21] | drug sensitivity score (STS26T [22]) | drug sensitivity score (HS-PSS [23]) | drug sensitivity score (S1507-2 [24])
COc1ccc(S(=O)(=O)Nc2cccnc2Nc2ccc(O)cc2)cc1 [ABT-751] (max concentration tested 10000 nM) | 10.8 | 12.3 | 15.1 | 16.8 ± 0.83 | 13.5 | 16.3 | 3.98 | 14.3 | 14 ± 0.54 | 83.1 | 76.6 | 86 | 96.52 ± 0.26 | 86 | 94.9 | 69 | 87.8 | 79.7 ± 4.9 | 7.1 | 13.5 | 12.9 | 19 | 0 | 11.9 ± 0.12
CNC(=O)c1ccc(N2C(=S)N(c3cnc(C#N)c(C(F)(F)F)c3)C(=O)C23CCC3)cc1F [ARN 509] (max concentration tested 10000 nM) | 0 | 0 | 0 | 0 | 0 | 0 | 2.56 | 0 | 0 | 5.31 | -4.96 | 9.08 | 5.15 ± 0.46 | -11.5 | 2.87 | 11.9 | 3.75 | 1.5 ± 14 | 0 | 0 | 0 | 0.407 | 0 | 0.0953 ± 0.14
O=C(Nc1c[nH]nc1-c1nc2ccc(CN3CCOCC3)cc2[nH]1)NC1CC1 [AT9283] (max concentration tested 1000 nM) | 6.27 | 10.7 | 13 | 8.755 ± 0.034 | 10.5 | 5.9 | 3.34 | 4.99 | 10.9 ± 1.9 | 67.4 | 83.1 | 92.4 | 84.48 ± 0.23 | 83 | 66.9 | 40.9 | 93.4 | 95.6 ± 4.4 | 4.98 | 15.5 | 5.2 | 8.27 | 0 | 8.28 ± 1.4
Cc1cc2c(C(C)C)c(O)c(O)c(C=O)c2c(O)c1-c1c(C)cc2c(C(C)C)c(O)c(O)c(C=O)c2c1O [AT 101] (max concentration tested 100000 nM) | 15.2 | 16.2 | 12.6 | 16 ± 1.1 | 20.2 | 11.8 | 9.43 | 15.1 | 8.69 ± 1.2 | 101 | 94.7 | 95.4 | 95.03 ± 0.8 | 93.6 | 96.6 | 101 | 101 | 95.6 ± 1.6 | 4.09 | 0.0013 | 0 | 0 | 2.34 | 0
CN[C@@H](C)C(=O)N[C@H]1CN(C(=O)CC(C)C)CC[C@H]2CC[C@@H](C(=O)NC(c3ccccc3)c3ccccc3)N2C1=O [AT-406] (max concentration tested 10000 nM) | 0 | 0 | 0 | 0 | 0 | 12.4 | 0.14 | 0 | 0.378 ± 0.28 | 8.35 | -7.18 | 3.57 | 3.84 ± 5.2 | -4.84 | 56 | 14.3 | 10.6 | 14.97 ± 0.11 | 0 | 0 | 0 | 22.4 | 0 | 13.1 ± 11
CC[C@H](CC#N)OC(=O)N[C@@H](C)c1cccc(NC(=O)Nc2ccc(-c3cnco3)c(OC)c2)c1 [AVN944] (max concentration tested 10000 nM) | 16 | 18.7 | 11.4 | 14.5 ± 1.5 | 20 | 12.2 | 12.5 | 8.71 | 8.48 ± 0.44 | 89.7 | 71.2 | 78.7 | 81.8 ± 2.8 | 76.8 | 74.3 | 69.4 | 60.8 | 54.6 ± 5.9 | 0 | 7.26 | 0 | 0.427 | 0 | 0
COc1cc(OC2CCN(C)CC2)ccc1Nc1ncc2c(n1)n(C1CCCC1)c(=O)n2C [AZ 3146] (max concentration tested 10000 nM) | 6.64 | 2.64 | 6.15 | 9.91 ± 0.79 | 2.78 | 6.58 | 6.35 | 8.57 | 5.68 ± 1.6 | 68.7 | 53.1 | 92.4 | 82.8 ± 4.9 | 54.7 | 62.1 | 75.4 | 95.6 | 87.86 ± 0.87 | 0 | 5.94 | 0.0952 | 4.54 | 1.72 | 2.07 ± 1.8
CCN(CCO)CCCOc1ccc2c(Nc3cc(CC(=O)Nc4cccc(F)c4)[nH]n3)ncnc2c1 [AZD1152-HQPA] (max concentration tested 1000 nM) | 11.2 | 7.19 | 4.68 | 8.6 ± 0.56 | 8.05 | 4.07 | 0.81 | 0 | 3.8464 ± 7.1e-05 | 40.6 | 34.7 | 51.2 | 35.8 ± 1.1 | 39.6 | 41.2 | 9.86 | 0.66 | 37.8 ± 7.3 | 0 | 4.15 | 0.941 | 3.61 | 0 | 0
Cc1cc(Nc2nc(N[C@@H](C)c3ncc(F)cn3)ncc2Cl)[nH]n1 [AZD1480] (max concentration tested 1000 nM) | 0.54 | 2.84 | 0.0148 | 1.64 ± 0.2 | 0.934 | 0.3 | 0.78 | 0 | 0.0872 ± 0.12 | 20.3 | 37.6 | 10.4 | 26.4 ± 3.4 | 17 | 18.1 | 20.3 | 2.41 | 11.6 ± 8 | 0 | 0 | 0.662 | 0 | 0 | 5.43 ± 7.7
CNC(=O)c1cccc(-c2ccc3c(N4CCOC[C@@H]4C)nc(N4CCOC[C@@H]4C)nc3n2)c1 [AZD2014] (max concentration tested 10000 nM) | 17.9 | 15.2 | 10.7 | 11.1 ± 0.51 | 15 | 12 | 10.4 | 11.7 | 12.6 ± 1 | 79.2 | 87.4 | 78.5 | 66.2 ± 1.5 | 87.1 | 75.4 | 69.8 | 71 | 75.49 ± 0.4 | 0 | 0 | 0 | 0 | 0 | 0
COc1cc(CCc2cc(NC(=O)c3ccc(N4CC(C)NC(C)C4)cc3)n[nH]2)cc(OC)c1 (configuration not stated) [AZD4547] (max concentration tested 1000 nM) | 0 | 3.09 | 0 | 2.85 ± 0.75 | 0 | 0 | 0 | 1.94 | 1.28 ± 0.63 | 3.65 | 22.4 | 9.11 | 24.6 ± 2.2 | 4.39 | -2.98 | 4.91 | 33.5 | 22.2 ± 3.5 | 0 | 0 | 0 | 0 | 0 | 0.158 ± 0.22
NC(=O)Nc1cc(-c2cccc(F)c2)sc1C(=O)N[C@H]1CCCNC1 [AZD7762] (max concentration tested 1000 nM) | 4.02 | 6.7 | 8.3 | 14.7 ± 0.2 | 3.95 | 9.05 | 4.8 | 12.7 | 10.9 ± 0.13 | 71.9 | 72.8 | 86.2 | 98.22 ± 0.35 | 70.2 | 90.7 | 61.9 | 90.7 | 80.47 ± 0.4 | 3.66 | 5.42 | 5.55 | 9.01 | 0.32 | 3.7 ± 0.91
COc1ccc(-c2ccc3c(N4CCOC[C@@H]4C)nc(N4CCOC[C@@H]4C)nc3n2)cc1CO [AZD8055] (max concentration tested 10000 nM) | 25.1 | 26.2 | 18 | 22.3 ± 1.8 | 27.2 | 21 | 17 | 17.9 | 22.5 ± 1.3 | 78.6 | 89.3 | 84.1 | 74.8 ± 1.4 | 89.9 | 82 | 70.7 | 75.8 | 85.4 ± 0.61 | 0 | 0.371 | 0 | 0 | 0.77 | 0
